Data: US4783401A (priority 1986, dated 1988)

How the values were obtained:
V79 cells [1] = tested on: V79 cells
V79 cells [2] = tested on: V79 cells; remark: listed apart in the source
rabbit red cells = details: in vivo
cells = details: cited from earlier work

O=S(=O)(O)CCCNC1CCCCC1 [CAPS, 3-(Cyclohexylamino)-1-propanesulfonic acid]
effect on cell doubling time compared to phosphate buffered saline (Yac cells): negligable effects on cell doubling time

O=S(=O)(O)CC(O)CN(CCO)CCO (stereo not drawn) [DIPSO, 3-[N--N--bis(2-hydroxyethyl)amino]-2-hydroxypropane-sulfonic acid]
effect on cell doubling time compared to phosphate buffered saline (Yac cells): negligable effects on cell doubling time

CCCCCCCCCCCCCCN1C(=CC=Cc2oc3ccccc3[n+]2CCCCCCCCCCCCCC)Oc2ccccc21 [DiOC14 (3)]
Cell doubling time of stained cells (V79 cells [1]): unaffected
Effect on cell viability, Propidium Iodide exclusion (V79 cells [2]): absence of effect on cell viability
Effect on cell viability, Trypan Blue Exclusion (V79 cells [2]): absence of effect on cell viability

CCCCCCCCCCCCCCN1C(=CC=CC=Cc2sc3ccccc3[n+]2CCCCCCCCCCCCCC)Sc2ccccc21 [DiSC14 (5)]
effect on clearance rate of red blood cells (rabbit red cells): did not affect the clearance rate of red blood cells
lifetime of labelled red cells in circulation (rabbit red cells): 52 days

O=S(=O)(O)CCCN1CCN(CCO)CC1 [EPPS, N--(2-Hydroxyethyl)piperazine-N'--3-propanesulfonic acid]
effect on cell doubling time compared to phosphate buffered saline (Yac cells): negligable effects on cell doubling time

O=C[C@H](O)[C@@H](O)[C@H](O)[C@H](O)CO [Glucose]
effect on cell doubling time compared to phosphate buffered saline (Yac cells): negligable effects on cell doubling time

O=S(=O)(O)CC(O)CN1CCN(CCO)CC1 (stereo not drawn) [HEPPSO, N--2-hydroxyethylpiperazine-N'--2-hydroxypropane-sulfonic acid]
effect on cell doubling time compared to phosphate buffered saline (Yac cells): negligable effects on cell doubling time

OC[C@H]1O[C@@](CO)(O[C@H]2O[C@H](CO)[C@@H](O)[C@H](O)[C@H]2O)[C@@H](O)[C@@H]1O [Sucrose]
Doubling Time (Yac cells): 41.0 h
effect on cell doubling time compared to phosphate buffered saline (Yac cells): negligable effects on cell doubling time

O=S(=O)(O)CCCNC(CO)(CO)CO [TAPS, Tris(hydroxymethyl)-methylaminopropane sulfonic acid]
effect on cell doubling time compared to phosphate buffered saline (Yac cells): negligable effects on cell doubling time

CCCCN1C(=O)C(=CC=CC=C2Oc3ccccc3N2CCCS(=O)(=O)O)C(=O)N(CCCC)C1=S [merocyanine 540]
cytotoxicity (cells): cytotoxic when the cell is exposed to light

Phosphate Buffered Saline
Doubling Time (Yac cells): 31.0 h
